Results from US10745399B2 (priority 2015, dated 2020).

The molecules below were run on CHK2 phosphorylation (phospho-Thr68) in HCT116 cells (assay: Cellular pCHK2 assay, bleomycin-induced phosphorylation of CHK2 (phospho-Thr68), immunofluorescence high content). Conditions: Homo sapiens, HCT-116; HCT116 cells, 10 μM bleomycin, 4 h; read-out: IC50 (pCHK2).
Format: cell-based
Source text: For the identification of substances which inhibit the phosphorylation of the protein kinase CHK2 at the amino acid threonine 68, an immunofluorescence-based “high content” analysis assay was used in HCT116 cells.
In vitro cell-based immunofluorescence assay for the identification of inhibitors of bleomycin-induced phosphorylation of CHK2 (phospho-Thr68) in the human colon carcinoma cell line HCT116:
HCT116 cells are sown out in a defined cell density in 384-well plates in culture medium (DMEM high glucose, 2 mM GlutaMax, 1 mM Na pyruvate, 10% FCS) and incubated overnight at 37° C. and 10% of CO2. On the following day, the test substances are added in a defined concentration range (1 nM to 30 μM) in combination with 10 μM bleomycin, where the concentration of the solvent DMSO is kept constant at 0.5%. After incubation for four hours at 37° C. and 10% of CO2, the cells are fixed (5 min, 4% formaldehyde in PBS), permeabilised (10 min, 0.2% Triton X-100 in PBS) and, after blocking of nonspecific binding sites (10% goat serum, 1% BSA in PBS), incubated overnight at 4° C. with a specific anti-pCHK2 antibody (cell signalling #2661). pCHK2 (Thr68) is determined using an Alexa488-labelled secondary anti-rabbit IgG antibody. Parallel staining of DNA with propidium iodide enables determination of the cell count. The pCHK2 signal is detected using a high-content imager (Molecular Devices IMX Ultra) and automatic image analysis using the MetaXpress software belonging to the instrument. The number of cell nuclei which have a pCHK2 signal above a defined background is determined.

Row | Structure (SMILES) | IC50 [µM]
1 | COc1cc2ncc3c(c2cc1-c1cnc2nc(C)[nH]c2c1)n(-c1c(F)cncc1OC)c(=O)n3C [compound 152, 1-(3-Fluoro-5-methoxy-pyridin-4-yl)-7-methoxy-3-methyl-8-(2-methyl-1H-imidazo[4,5-b]pyridin-6-yl)-1,3-dihydroimidazo[4,5-c]-quinolin-2-one] | < 0.2
2 | CNCCOc1cnc(-n2c(=O)n(C)c3cnc4cc(OC)c(-c5cnn(C)c5)cc4c32)c(F)c1 [compound 206] | 0.2 to 1
3 | COc1cc2ncc3c(c2cc1-c1cnn(C)c1)n(-c1ncc(Cl)cc1F)c(=O)n3C [compound 119, 1-(5-Chloro-3-fluoropyridin-2-yl)-7-methoxy-3-methyl-8-(1-methyl-1H-pyrazol-4-yl)-1,3-dihydroimidazo[4,5-c]-quinolin-2-one] | < 0.2
4 | COc1cnc(-n2c(=O)n(C)c3cnc4cc(OC)c(-c5ccc6nc[nH]c6c5)cc4c32)c(F)c1 [compound 153, 8-(3H-Benzimidazol-5-yl)-1-(3-fluoro-5-methoxypyridin-2-yl)-7-methoxy-3-methyl-1,3-dihydroimidazo[4,5-c]-quinolin-2-one] | 0.2 to 1
5 | C=CCOc1cnc(-n2c(=O)n(C)c3cnc4cc(OC)c(-c5cnn(C)c5)cc4c32)c(F)c1 [compound 204, 1-(5-Allyloxy-3-fluoropyridin-2-yl)-7-methoxy-3-methyl-8-(1-methyl-1H-pyrazol-4-yl)-1,3-dihydroimidazo[4,5-c]-quinolin-2-one] | 0.2 to 1
6 | COc1cc2ncc3c(c2cc1-c1cnn(C)c1)n(-c1ncccn1)c(=O)n3C [Compound Example 52, 7-Methoxy-3-methyl-8-(1-methyl-1H-pyrazol-4-yl)-1-pyrimidin-2-yl-1,3-dihydro-imidazo[4,5-c]quinolin-2-one] | 0.2 to 1
7 | COc1cc2ncc3c(c2cc1-c1cn(C)nn1)n(-c1c(F)cncc1OC)c(=O)n3C [compound 131, 1-(3-Fluoro-5-methoxy-pyridin-4-yl)-7-methoxy-3-methyl-8-(1-methyl-1H-1,2,3-triazol-4-yl)-1,3-dihydroimidazo[4,5-c]-quinolin-2-one] | 0.2 to 1
8 | CCn1cc(-c2cc3c(cc2OC)ncc2c3n(-c3ncc(OC)cc3F)c(=O)n2C)cn1 [compound 111, 8-(1-Ethyl-1H-pyrazol-4-yl)-1-(3-fluoro-5-methoxy-pyridin-2-yl)-7-methoxy-3-methyl-1,3-dihydroimidazo-[4,5-c]quinolin-2-one] | 0.2 to 1
9 | COc1cc2ncc3[nH]c(=O)n(-c4c(F)cncc4OC)c3c2cc1-c1cn(C)nc1C [compound 129, 8-(1,3-Dimethyl-1H-pyrazol-4-yl)-1-(3-fluoro-5-methoxy-pyridin-4-yl)-7-methoxy-1,3-dihydroimidazo[4,5-c]-quinolin-2-one] | 1 to 2
10 | COc1cc2ncc3c(c2cc1-c1cnn(C)c1)n(-c1ccccn1)c(=O)n3C [Compound Example 56, 7-Methoxy-3-methyl-8-(1-methyl-1H-pyrazol-4-yl)-1-pyridin-2-yl-1,3-dihydro-imidazo[4,5-c]quinolin-2-one] | 0.2 to 1
11 | COc1cc2ncc3c(c2cc1-c1cnn(C)n1)n(-c1cn(C)nc1C)c(=O)n3C [compound 102, 1-(1,3-Dimethyl-1H-pyrazol-4-yl)-7-methoxy-3-methyl-8-(2-methyl-2H-1,2,3-triazol-4-yl)-1,3-dihydroimidazo-[4,5-c]quinolin-2-one] | < 0.2
12 | COc1cc2ncc3c(c2cc1-c1cn(C)nn1)n(-c1cn(C)nc1C)c(=O)n3C [Compound Example 42, 1-(1,3-Dimethyl-1H-pyrazol-4-yl)-7-methoxy-3-methyl-8-(1-methyl-1H-1,2,3-triazol-4-yl)-1,3-dihydroimidazo-[4,5-c]quinolin-2-one] | 0.2 to 1
13 | COc1cc2ncc3c(c2cc1-c1cc(N)n[nH]1)n(-c1ncccc1F)c(=O)n3C [compound 65, 8-(3-Amino-1H-pyrazol-5-yl)-1-(3-fluoro-2-pyridyl)-7-methoxy-3-methyl-imidazo-[4,5-c]quinolin-2-one] | 0.2 to 1
14 | CCn1cc(-n2c(=O)n(C)c3cnc4cc(OC)c(-c5cnn(C)c5)cc4c32)c(C)n1 [compound 130, 1-(1-Ethyl-3-methyl-1H-pyrazol-4-yl)-7-methoxy-3-methyl-8-(1-methyl-1H-pyrazol-4-yl)-1,3-dihydro-imidazo[4,5-c]quinolin-2-one] | 0.2 to 1
15 | CNC(=O)c1cnc(-n2c(=O)n(C)c3cnc4cc(OC)c(-c5cn(C)nc5C)cc4c32)c(F)c1 [compound 139, 6-[8-(1,3-Dimethyl-1H-pyrazol-4-yl)-7-methoxy-3-methyl-2-oxo-2,3-dihydro-imidazo[4,5-c]quinolin-1-yl]-5-fluoro-N-methyl-nicotinamid] | 0.2 to 1
16 | COc1cc2ncc3c(c2cc1-c1n[nH]cc1C)n(-c1cn(C)nc1C)c(=O)n3C [compound 151, 1-(1,3-Dimethyl-1H-pyrazol-4-yl)-7-methoxy-3-methyl-8-(4-methyl-1H-pyrazol-3-yl)-1,3-dihydroimidazo[4,5-c] quinolin-2-one] | < 0.2
17 | COc1cc2ncc3c(c2cc1-c1cn(C)nn1)n(-c1c(C)cncc1F)c(=O)n3C [compound 63, 1-(3-Fluoro-5-methylpyridin-4-yl)-7-methoxy-3-methyl-8-(1-methyl-1H-1,2,3-triazol-4-yl)-1,3-dihydroimidazo-[4,5-c]quinolin-2-one] | 0.2 to 1
18 | COc1cc2ncc3c(c2cc1-c1cnn(C)c1)n(-c1ccc(F)cn1)c(=O)n3C [Compound Example 50, 1-(5-Fluoropyridin-2-yl)-7-methoxy-3-methyl-8-(1-methyl-1H-pyrazol-4-yl)-1,3-dihydroimidazo[4,5-c]-quinolin-2-one] | 0.2 to 1
19 | COc1cc2ncc3c(c2cc1-c1cnc2nc(C)[nH]c2c1)n(-c1cn(C)nc1C)c(=O)n3C [compound 154, 1-(1,3-Dimethyl-1H-pyrazol-4-yl)-7-methoxy-3-methyl-8-(2-methyl-1H-imidazo[4,5-b]pyridin-6-yl)-1,3-dihydro-imidazo[4,5-c]quinolin-2-one] | 1 to 2
20 | CCn1cc(-c2cc3c(cc2OC)ncc2c3n(-c3c(F)cncc3OC)c(=O)n2C)c(C)n1 [compound 142, 8-(1-Ethyl-3-methyl-1H-pyrazol-4-yl)-1-(3-fluoro-5-methoxypyridin-4-yl)-7-methoxy-3-methyl-1,3-dihydroimidazo[4,5-c] quinolin-2-one] | 0.2 to 1
21 | COc1cc2ncc3c(c2cc1-c1cnn(C)c1)n(-c1ncc(OCC2CN(C)C2)cc1F)c(=O)n3C [compound 207, 1-[3-Fluoro-5-(1-methyl-azetidin-3-ylmethoxy)-pyridin-2-yl]-7-methoxy-3-methyl-8-(1-methyl-1H-pyrazol-4-yl)-1,3-dihydro-imidazo[4,5-c]quinolin-2-one] | 0.2 to 1
22 | COc1cc2ncc3c(c2cc1-c1cnn(C)n1)n(-c1c(F)cncc1OC)c(=O)n3C [compound 127, 1-(3-Fluoro-5-methoxy-pyridin-4-yl)-7-methoxy-3-methyl-8-(2-methyl-2H-1,2,3-triazol-4-yl)-1,3-dihydroimidazo[4,5-c] quinolin-2-one] | 0.2 to 1
23 | COc1cc2ncc3c(c2cc1-c1cnn(C)n1)n(-c1ncc(F)cc1F)c(=O)n3C [compound 101, 1-(3,5-Difluoropyridin-2-yl)-7-methoxy-3-methyl-8-(2-methyl-2H-1,2,3-triazol-4-yl)-1,3-dihydroimidazo-[4,5-c]quinolin-2-one] | < 0.2
